Biological target: T1, Human ENPP-1 (Homo sapiens, UniProt P22413)
T1 sequence (P22413 1-925): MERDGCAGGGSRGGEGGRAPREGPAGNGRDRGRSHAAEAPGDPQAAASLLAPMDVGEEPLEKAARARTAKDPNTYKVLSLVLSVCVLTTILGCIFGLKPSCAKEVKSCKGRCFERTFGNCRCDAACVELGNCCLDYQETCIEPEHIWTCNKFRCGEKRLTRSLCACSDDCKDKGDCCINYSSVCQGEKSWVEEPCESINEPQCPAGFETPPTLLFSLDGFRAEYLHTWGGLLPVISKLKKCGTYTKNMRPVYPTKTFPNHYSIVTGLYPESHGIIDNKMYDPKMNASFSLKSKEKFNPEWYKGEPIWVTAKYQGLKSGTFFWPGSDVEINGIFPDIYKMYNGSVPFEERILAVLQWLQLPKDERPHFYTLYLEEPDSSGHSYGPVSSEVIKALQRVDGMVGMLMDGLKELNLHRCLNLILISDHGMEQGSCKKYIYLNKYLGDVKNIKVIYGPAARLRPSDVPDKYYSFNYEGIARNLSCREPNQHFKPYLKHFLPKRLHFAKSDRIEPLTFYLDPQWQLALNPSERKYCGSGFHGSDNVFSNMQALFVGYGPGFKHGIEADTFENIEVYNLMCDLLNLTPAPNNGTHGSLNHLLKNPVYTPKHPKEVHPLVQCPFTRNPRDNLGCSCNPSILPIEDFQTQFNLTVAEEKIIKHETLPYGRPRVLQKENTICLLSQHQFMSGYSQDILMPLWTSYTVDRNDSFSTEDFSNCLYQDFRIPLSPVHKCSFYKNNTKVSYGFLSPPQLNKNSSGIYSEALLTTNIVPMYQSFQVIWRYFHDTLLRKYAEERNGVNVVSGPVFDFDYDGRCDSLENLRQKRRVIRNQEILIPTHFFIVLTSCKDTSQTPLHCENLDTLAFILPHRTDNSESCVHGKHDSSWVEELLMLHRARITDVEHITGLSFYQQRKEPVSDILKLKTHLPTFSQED
Test: ENPP-1 Inhibition Assay (cGAMP substrate, AMP Glo luminescence)
Format: biochemical
Conditions: Human ENPP-1 3 nM, 5 μM cGAMP, pH 7.4, 40 μM HSA, RT 3 hrs; read-out: IC50 values of compounds of the invention, 0.1-1 uM
Procedure: Assay method: Human ENPP-1 at 3 nM prepared in pH 7.4 was incubated with 5 μM cGAMP substrate with the test samples prepared in buffer with pH 7.4 along with 40 μM HSA. The reaction was incubated at RT for 3 hrs. Post incubation, the reaction was stopped by heating the contents at 95 °C for 10 mins. 10 μl of the solution was added to 384-well plate to which 10 μl of AMP Glo reagent-1 was added and incubated for 60 mins at 25 °C. After the incubation, 20 μl of AMP detection solution was added to each well with the enzyme reaction and incubated for 60 mins at 25 °C. The luminescence signal (RLU) was recorded using SpectraMax I3X plate reader.
The luminescence signal is measured as a function of concentration of the inhibitor. If the inhibitor molecule is active, as the concentration of the inhibitor increases, the luminescence value (referred to as OD) decreases. % Inhibition is then calculated as
% Inhibition=((OD of Control−OD of sample)/OD of Control)×100
In this disclosure, the IC50 value of an inhibitor molecule is measured as the concentration of inhibitor which inhibits growth of 50% of the human ENPP-1. A graph of inhibitor concentration on X-axis vs. percentage inhibition on Y-axis is drawn and the […] is measured as the IC50 value.

Row | SMILES | IC50
1 | COc1cc2ncnc(N=S(C)(=O)c3ccc(NC(N)=S)cc3)c2cc1OC (stereo not drawn) [SAPTI012S007] | 100 to 1000 nM
2 | COc1cc2ncnc(N=S(C)(=O)c3cccc(NS(N)(=O)=O)c3)c2cc1OC (stereo not drawn) [SAPTI012S010] | 100 to 1000 nM
3 | COc1cc2ncnc(N=S(C)(=O)c3cccc(N(C)C(N)=O)c3)c2cc1OC (stereo not drawn) [SAPTI012S012] | 100 to 1000 nM
4 | COc1cc2ncnc(N=S(C)(=O)c3ccc(C(=O)O)cc3)c2cc1OC (stereo not drawn) [SAPTI012S014] | 100 to 1000 nM
5 | COc1cc2ncnc(N=S(C)(=O)c3cccc(C(N)=O)c3)c2cc1OC (stereo not drawn) [SAPTI012S022] | 100 to 1000 nM
6 | COc1cc2ncnc(N=S(C)(=O)c3ccc(CCP(=O)(O)O)cc3)c2cc1OC (stereo not drawn) [SAPTI012S025] | 100 to 1000 nM
7 | COc1cc2ncnc(N=S(=O)(c3cccc(NC(N)=O)c3)C3CC3)c2cc1OC (stereo not drawn) [SAPTI012S032] | 100 to 1000 nM
8 | COc1cc2ncnc(N=S(=O)(c3ccccc3)c3ccc(NC(N)=O)cc3)c2cc1OC (stereo not drawn) [SAPTI012S034] | 100 to 1000 nM
9 | COc1cccc2c(N=S(C)(=O)c3ccc(B(O)O)cc3)ncnc12 (stereo not drawn) [SAPTI012S035] | 100 to 1000 nM

Same assay, conditions: Human ENPP-1 3 nM, 5 μM cGAMP, pH 7.4, 40 μM HSA, RT 3 hrs; read-out: IC50 values of compounds of the invention, 1-10 uM

Row | SMILES | IC50
10 | COc1cc2ncnc(N=S(C)(=O)c3ccc(P(=O)(O)O)cc3)c2cc1OC (stereo not drawn) [SAPTI012S001] | 1000 to 10000 nM
11 | COc1cc2ncnc(N=S(C)(=O)c3cccc(P(=O)(O)O)c3)c2cc1OC (stereo not drawn) [SAPTI012S002] | 1000 to 10000 nM
12 | COc1cccc2c(N=S(C)(=O)c3cccc(N(C)C(N)=O)c3)ncnc12 (stereo not drawn) [SAPTI012S013] | 1000 to 10000 nM
13 | COc1cc2nccc(N=S(C)(=O)c3ccc(C(N)=O)cc3)c2cc1OC (stereo not drawn) [SAPTI012S018] | 1000 to 10000 nM
14 | Cn1ccc2c(N=S(C)(=O)c3ccc(C(N)=O)cc3)ncnc21 (stereo not drawn) [SAPTI012S019] | 1000 to 10000 nM
15 | COc1cccc2c(N=S(C)(=O)c3ccc(C(N)=O)cc3)ccnc12 (stereo not drawn) [SAPTI012S020] | 1000 to 10000 nM
16 | COc1cccc2ncnc(N=S(C)(=O)c3ccc(B(O)O)cc3)c12 (stereo not drawn) [SAPTI012S039] | 1000 to 10000 nM
17 | COc1cc2ncnc(N=S(C)(=O)c3ccc(F)c(B(O)O)c3)c2cc1OC (stereo not drawn) [SAPTI012S043] | 1000 to 10000 nM

Same assay, conditions: Human ENPP-1 3 nM, 5 μM cGAMP, pH 7.4, 40 μM HSA, RT 3 hrs; read-out: IC50 values of compounds of the invention, <100 nM

Row | SMILES | IC50
18 | COc1cc2ncnc(N=S(C)(=O)c3ccc(B(O)O)cc3)c2cc1OC (racemic) [SAPTI012S006] | < 100 nM
19 | COc1cc2ncnc(N=S(C)(=O)c3cccc(B(O)O)c3)c2cc1OC (stereo not drawn) [SAPTI012S005] | < 100 nM
20 | COc1cc2ncnc(N=S(C)(=O)c3ccc(S(C)(=N)=O)cc3)c2cc1OC (stereo not drawn) [SAPTI012S008] | < 100 nM
21 | COc1cc2ncnc(N=S(C)(=O)c3ccc(NC(=O)Nc4ccccc4)cc3)c2cc1OC (stereo not drawn) [SAPTI012S009] | < 100 nM
22 | COc1cc2ncnc(N=S(C)(=O)c3cccc(NC(N)=O)c3)c2cc1OC (stereo not drawn) [SAPTI012S011] | < 100 nM
23 | COc1cc2ncnc(N=S(C)(=O)c3ccc(CNC(N)=O)cc3)c2cc1OC (stereo not drawn) [SAPTI012S015] | < 100 nM
24 | COc1cc2ncnc(N=S(C)(=O)c3ccc(C(N)=O)cc3)c2cc1OC (stereo not drawn) [SAPTI012S016] | < 100 nM
25 | COc1cc2ncnc(N=S(C)(=O)c3cccc(C(=O)O)c3)c2cc1OC (stereo not drawn) [SAPTI012S021] | < 100 nM
26 | COc1cc2ncnc(N=S(C)(=O)c3cccc(CNC(N)=O)c3)c2cc1OC (stereo not drawn) [SAPTI012S024] | < 100 nM
27 | COc1cc2ncnc(N=S(C)(=O)c3cccc4c(P(=O)(O)O)cccc34)c2cc1OC (stereo not drawn) [SAPTI012S028] | < 100 nM
28 | COc1cc2ncnc(N=S(C)(=O)c3cccc4c(NC(N)=O)cccc34)c2cc1OC (stereo not drawn) [SAPTI012S029] | < 100 nM
29 | COc1cc2ncnc(N=S(=O)(c3cccc(NC(N)=O)c3)C3CCCC3)c2cc1OC (stereo not drawn) [SAPTI012S030] | < 100 nM
30 | COc1cc2ncnc(N=S(=O)(c3ccc(P(=O)(O)O)cc3)C(C)C)c2cc1OC (stereo not drawn) [SAPTI012S031] | < 100 nM
31 | COc1cc2nccc(N=S(C)(=O)c3ccc(B(O)O)cc3)c2cc1OC (stereo not drawn) [SAPTI012S036] | < 100 nM
32 | COc1nccc2c(N=S(C)(=O)c3ccc(B(O)O)cc3)ncnc12 (stereo not drawn) [SAPTI012S040] | < 100 nM
33 | COc1cc2ncnc(N=S(C)(=O)c3ccc(CC(N)=O)cc3)c2cc1OC (stereo not drawn) [SAPTI012S042] | < 100 nM

Same assay, conditions: Human ENPP-1 3 nM, 5 μM cGAMP, pH 7.4, 40 μM HSA, RT 3 hrs; read-out: IC50 values of compounds of the invention, >10 uM

Row | SMILES | IC50
34 | COc1cc2ncnc(N=S(C)(=O)c3ccc(NS(N)(=O)=O)cc3)c2cc1OC (stereo not drawn) [SAPTI012S003, N-{4-[N-(6,7-dimethoxyquinazoline-4-)-S-methanesulfonimidoyl]phenyl}sulfuric diamide] | > 10000 nM
35 | COc1cccc2c(N=S(C)(=O)c3ccc(C(N)=O)cc3)ncnc12 (stereo not drawn) [SAPTI012S017] | > 10000 nM
36 | COc1cc2ncnc(N=S(C)(=O)c3cccc(CN)c3)c2cc1OC (stereo not drawn) [SAPTI012S023] | > 10000 nM
37 | COc1cc2ncnc(N=S3(=O)CCC(C)(C)c4cc(P(=O)(O)O)ccc43)c2cc1OC (stereo not drawn) [SAPTI012S026] | > 10000 nM
38 | COc1cc2ncnc(N=S(=O)(CCCP(=O)(O)O)c3ccccc3)c2cc1OC (stereo not drawn) [SAPTI012S027] | > 10000 nM
39 | COc1cc2ncnc(N=S(=O)(c3cccc(NC(N)=O)c3)C(C)C)c2cc1OC (stereo not drawn) [SAPTI012S033] | > 10000 nM
40 | Cn1ccc2c(N=S(C)(=O)c3ccc(B(O)O)cc3)ncnc21 (stereo not drawn) [SAPTI012S037] | > 10000 nM
41 | CS(=O)(=Nc1ncnc2ccc(F)cc12)c1ccc(B(O)O)cc1 (stereo not drawn) [SAPTI012S038] | > 10000 nM
42 | CS(=O)(=Nc1ncnc2ccccc12)c1ccc(B(O)O)cc1 (stereo not drawn) [SAPTI012S041] | > 10000 nM

Same assay, conditions: racemate and enantiomers separated by chiral HPLC; Human ENPP-1 3 nM, 5 μM cGAMP, pH 7.4, 40 μM HSA; read-out: IC50 value range (enantiomers of SAPTI012S006)

Row | SMILES | IC50
43 | COc1cc2ncnc(N=S(C)(=O)c3ccc(B(O)O)cc3)c2cc1OC (racemic) [SAPTI012S006] | < 100 nM
44 | COc1cc2ncnc(N=S(C)(=O)c3ccc(B(O)O)cc3)c2cc1OC (single isomer, unassigned) [SAPTI012S006-E1] | > 100 nM
45 | COc1cc2ncnc(N=S(C)(=O)c3ccc(B(O)O)cc3)c2cc1OC (single isomer, unassigned) [SAPTI012S006-E2] | < 100 nM

From patent US20260365627A1, “NOVEL ECTONUCLEOTIDE PYROPHOSPHATASE / PHOSPHODIESTERASE 1 (ENPP-1) INHIBITORS AND USES THEREOF” (SRAVATHI AI TECHNOLOGY PRIVATE LIMITED, priority 2022, published 2026)
